# Tests used:
# Test in all cases: relative viability (nuclei count vs DMSO), 5 days (fraction); higher = more cells survive
# NCI-H1437 = system: NCI-H1437
# Summary of the method: (§1)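 Values are medians from duplicate plates. Each reflects relative viability, defined as the nuclei count of treated wells over that of vehicle wells. Lung cancer cell lines in 1536-well plates were pin-tool dosed one day after seeding with one drug alone or with a fixed anchor-drug dose plus five library-drug doses (not always all listed) in √10 steps, then fixed, stained and imaged at 4× after 5 days.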
# NCI-H1395 = system: NCI-H1395
# Summary of the method: as §1
# BEN = system: BEN
# Summary of the method: as §1
# SK-LU-1 = system: SK-LU-1
# Summary of the method: as §1
# HCC-827 = system: HCC-827
# Summary of the method: as §1
# HARA = system: HARA
# Summary of the method: as §1
# NCI-H1993 = system: NCI-H1993
# Summary of the method: as §1
# NCI-H647 = system: NCI-H647
# Summary of the method: as §1
# NCI-H1734 = system: NCI-H1734
# Summary of the method: as §1
# EKVX = system: EKVX
# Summary of the method: as §1
# SK-MES-1 = system: SK-MES-1
# Summary of the method: as §1
# NCI-H2009 = system: NCI-H2009
# Summary of the method: as §1
# NCI-H2170 = system: NCI-H2170
# Summary of the method: as §1
# HCC-366 = system: HCC-366
# Summary of the method: as §1
# NCI-H2087 = system: NCI-H2087
# Summary of the method: as §1
# LOU-NH91 = system: LOU-NH91
# Summary of the method: as §1
# NCI-H1792 = system: NCI-H1792
# Summary of the method: as §1
# NCI-H522 = system: NCI-H522
# Summary of the method: as §1
# NCI-H1355 = system: NCI-H1355
# Summary of the method: as §1
# NCI-H661 = system: NCI-H661
# Summary of the method: as §1
# NCI-H2405 = system: NCI-H2405
# Summary of the method: as §1
# NCI-H2342 = system: NCI-H2342
# Summary of the method: as §1
compound,measurement,setting,value
Nc1ccn([C@@H]2O[C@H](CO)[C@@H](O)[C@@H]2O)c(=O)n1 [Cytarabine] + Cc1nc(Nc2ncc(C(=O)Nc3c(C)cccc3Cl)s2)cc(N2CCN(CCO)CC2)n1 [Dasatinib] (partner 0.075 µM),relative viability,NCI-H1437; first compound 0.005 µM,0.395
same,relative viability,NCI-H1437; first compound 0.01581 µM,0.26
same,relative viability,NCI-H1437; first compound 0.05 µM,0.228
same,relative viability,NCI-H1437; first compound 0.1581 µM,0.142
same,relative viability,NCI-H1437; first compound 0.5 µM,0.165
same,relative viability,NCI-H1395; first compound 0.005 µM,0.385
same,relative viability,NCI-H1395; first compound 0.01581 µM,0.34
same,relative viability,NCI-H1395; first compound 0.05 µM,0.374
same,relative viability,NCI-H1395; first compound 0.1581 µM,0.319
same,relative viability,NCI-H1395; first compound 0.5 µM,0.282
same,relative viability,BEN; first compound 0.005 µM,0.332
same,relative viability,BEN; first compound 0.01581 µM,0.312
same,relative viability,BEN; first compound 0.05 µM,0.204
same,relative viability,BEN; first compound 0.1581 µM,0.175
same,relative viability,BEN; first compound 0.5 µM,0.213
same,relative viability,SK-LU-1; first compound 0.005 µM,0.179
same,relative viability,SK-LU-1; first compound 0.01581 µM,0.157
same,relative viability,SK-LU-1; first compound 0.05 µM,0.17
same,relative viability,SK-LU-1; first compound 0.5 µM,0.147
same,relative viability,HCC-827; first compound 0.005 µM,0.445
same,relative viability,HCC-827; first compound 0.01581 µM,0.397
same,relative viability,HCC-827; first compound 0.05 µM,0.4
same,relative viability,HCC-827; first compound 0.1581 µM,0.226
same,relative viability,HCC-827; first compound 0.5 µM,0.227
same,relative viability,HARA; first compound 0.005 µM,0.309
same,relative viability,HARA; first compound 0.01581 µM,0.222
same,relative viability,HARA; first compound 0.05 µM,0.227
same,relative viability,HARA; first compound 0.1581 µM,0.0854
same,relative viability,HARA; first compound 0.5 µM,0.0721
same,relative viability,NCI-H1993; first compound 0.005 µM,0.74
same,relative viability,NCI-H1993; first compound 0.01581 µM,0.58
same,relative viability,NCI-H1993; first compound 0.05 µM,0.523
same,relative viability,NCI-H1993; first compound 0.1581 µM,0.49
same,relative viability,NCI-H1993; first compound 0.5 µM,0.425
same,relative viability,NCI-H647; first compound 0.005 µM,0.104
same,relative viability,NCI-H647; first compound 0.01581 µM,0.0553
same,relative viability,NCI-H647; first compound 0.05 µM,0.0872
same,relative viability,NCI-H647; first compound 0.1581 µM,0.0307
same,relative viability,NCI-H647; first compound 0.5 µM,0.0339
same,relative viability,NCI-H1734; first compound 0.005 µM,0.419
same,relative viability,NCI-H1734; first compound 0.01581 µM,0.221
same,relative viability,NCI-H1734; first compound 0.05 µM,0.218
same,relative viability,NCI-H1734; first compound 0.1581 µM,0.125
same,relative viability,NCI-H1734; first compound 0.5 µM,0.113
same,relative viability,EKVX; first compound 0.005 µM,0.567
same,relative viability,EKVX; first compound 0.01581 µM,0.416
same,relative viability,EKVX; first compound 0.05 µM,0.456
same,relative viability,EKVX; first compound 0.1581 µM,0.357
same,relative viability,EKVX; first compound 0.5 µM,0.273
same,relative viability,SK-MES-1; first compound 0.005 µM,0.213
same,relative viability,SK-MES-1; first compound 0.01581 µM,0.174
same,relative viability,SK-MES-1; first compound 0.05 µM,0.127
same,relative viability,SK-MES-1; first compound 0.1581 µM,0.117
same,relative viability,SK-MES-1; first compound 0.5 µM,0.113
same,relative viability,NCI-H2009; first compound 0.005 µM,0.304
same,relative viability,NCI-H2009; first compound 0.01581 µM,0.275
same,relative viability,NCI-H2009; first compound 0.05 µM,0.295
same,relative viability,NCI-H2009; first compound 0.1581 µM,0.192
same,relative viability,NCI-H2009; first compound 0.5 µM,0.146
same,relative viability,NCI-H2170; first compound 0.005 µM,0.576
same,relative viability,NCI-H2170; first compound 0.01581 µM,0.589
same,relative viability,NCI-H2170; first compound 0.05 µM,0.533
same,relative viability,NCI-H2170; first compound 0.1581 µM,0.244
same,relative viability,NCI-H2170; first compound 0.5 µM,0.241
same,relative viability,HCC-366; first compound 0.005 µM,0.573
same,relative viability,HCC-366; first compound 0.01581 µM,0.402
same,relative viability,HCC-366; first compound 0.05 µM,0.424
same,relative viability,HCC-366; first compound 0.1581 µM,0.148
same,relative viability,HCC-366; first compound 0.5 µM,0.0563
same,relative viability,NCI-H2087; first compound 0.005 µM,0.747
same,relative viability,NCI-H2087; first compound 0.01581 µM,0.712
same,relative viability,NCI-H2087; first compound 0.05 µM,0.82
same,relative viability,NCI-H2087; first compound 0.1581 µM,0.265
same,relative viability,NCI-H2087; first compound 0.5 µM,0.233
same,relative viability,LOU-NH91; first compound 0.005 µM,0.542
same,relative viability,LOU-NH91; first compound 0.01581 µM,0.555
same,relative viability,LOU-NH91; first compound 0.05 µM,0.422
same,relative viability,LOU-NH91; first compound 0.1581 µM,0.416
same,relative viability,LOU-NH91; first compound 0.5 µM,0.398
same,relative viability,NCI-H1792; first compound 0.005 µM,1.34
same,relative viability,NCI-H1792; first compound 0.01581 µM,0.657
same,relative viability,NCI-H1792; first compound 0.05 µM,0.603
same,relative viability,NCI-H1792; first compound 0.1581 µM,0.503
same,relative viability,NCI-H1792; first compound 0.5 µM,0.355
same,relative viability,NCI-H522; first compound 0.005 µM,0.935
same,relative viability,NCI-H522; first compound 0.01581 µM,0.802
same,relative viability,NCI-H522; first compound 0.05 µM,0.769
same,relative viability,NCI-H522; first compound 0.1581 µM,0.562
same,relative viability,NCI-H522; first compound 0.5 µM,0.55
same,relative viability,NCI-H1355; first compound 0.005 µM,0.641
same,relative viability,NCI-H1355; first compound 0.01581 µM,0.672
same,relative viability,NCI-H1355; first compound 0.05 µM,0.486
same,relative viability,NCI-H1355; first compound 0.1581 µM,0.352
same,relative viability,NCI-H1355; first compound 0.5 µM,0.369
same,relative viability,NCI-H661; first compound 0.005 µM,0.636
same,relative viability,NCI-H661; first compound 0.01581 µM,0.529
same,relative viability,NCI-H661; first compound 0.05 µM,0.516
same,relative viability,NCI-H661; first compound 0.1581 µM,0.358
same,relative viability,NCI-H661; first compound 0.5 µM,0.283
same,relative viability,NCI-H2405; first compound 0.005 µM,0.206
same,relative viability,NCI-H2405; first compound 0.01581 µM,0.17
same,relative viability,NCI-H2405; first compound 0.05 µM,0.167
same,relative viability,NCI-H2405; first compound 0.1581 µM,0.144
same,relative viability,NCI-H2405; first compound 0.5 µM,0.146
same,relative viability,NCI-H2342; first compound 0.005 µM,0.309
same,relative viability,NCI-H2342; first compound 0.01581 µM,0.295
same,relative viability,NCI-H2342; first compound 0.05 µM,0.262
same,relative viability,NCI-H2342; first compound 0.1581 µM,0.257
same,relative viability,NCI-H2342; first compound 0.5 µM,0.277
